We go through five compounds from PubChem BioAssay AID1963442 (Molecular Pharmacology Branch, DTP, NCI, 2024).

Several values for one entry are separate records, joined by “and”; a condition that tells them apart may be missing. Equal values may be shown once.

In this experiment the test system is MPNST complex spheroid with HUVEC/MSC, growth, % test/control. The experiment in a line: Anticancer human tumor MPNST cell line growth inhibition [Asc].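 As to all read-outs here: compounds left on spheroids for seven days before reading.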 To be noted: for viability, T/C: stronger effect = lower value. In outline: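 Tumor cells were grown as complex spheroids with human endothelial cells (HUVEC) and human mesenchymal stem cells as stroma. Agents were tested alone and in combination, in half-log steps down from the clinical Cmax, or from 10 microM where Cmax was unknown.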

Where [1] appears, read: curve of first compound, second compound 0.03 µM.
The mark [2] stands for this setting: curve of first compound, second compound 0.0949 µM.
Setting [3] is: curve of first compound, second compound 0.3 µM.
[4] abbreviates: curve of first compound, second compound 0.949 µM.
The mark [5] stands for this setting: curve of first compound, second compound 3 µM.

By IC50 is commonly meant the concentration needed to halve the response being measured. The term viability, T/C denotes the ratio of treated to control. Consider `NC(=O)C(=Cn1cnc(-c2cc(C(F)(F)F)cc(C(F)(F)F)c2)n1)c1cncnc1` + CCN1C(C(=O)NC23CCC(C(=O)O)(CC2)CC3)C(c2cccc(Cl)c2F)C2(C(=O)Nc3cc(Cl)ccc32)C12CCCCC2, for which the IC50 was 172 nM under setting [1]; 139 nM under setting [2]; 198 nM under setting [3]; 88 nM under setting [4]; 80.8 nM under setting [5]. Moreover, the viability, T/C is, setting by setting: (second compound 0.03 µM, first compound 0.000949 µM) 64.2%; (second compound 0.03 µM, first compound 0.003 µM) 78.6%; (second compound 0.03 µM, first compound 0.00949 µM) 66.9%; (second compound 0.03 µM, first compound 0.03 µM) 64%; (second compound 0.03 µM, first compound 0.0949 µM) 56.2%; (second compound 0.03 µM, first compound 0.3 µM) 43.7%. The viability, T/C reads like this: (second compound 0.0949 µM, first compound 0.000949 µM) 75%; (second compound 0.0949 µM, first compound 0.003 µM) 90.7%; (second compound 0.0949 µM, first compound 0.00949 µM) 79.7%; (second compound 0.0949 µM, first compound 0.03 µM) 71%; (second compound 0.0949 µM, first compound 0.0949 µM) 55.5%; (second compound 0.0949 µM, first compound 0.3 µM) 40.1%. The viability, T/C is, setting by setting: (second compound 0.3 µM, first compound 0.000949 µM) 90.9%; (second compound 0.3 µM, first compound 0.003 µM) 99.1%; (second compound 0.3 µM, first compound 0.00949 µM) 90.9%; (second compound 0.3 µM, first compound 0.03 µM) 79.3%; (second compound 0.3 µM, first compound 0.0949 µM) 64.8%; (second compound 0.3 µM, first compound 0.3 µM) 42%. Also, the viability, T/C runs as follows: (second compound 0.949 µM, first compound 0.000949 µM) 95.2%; (second compound 0.949 µM, first compound 0.003 µM) 97%; (second compound 0.949 µM, first compound 0.00949 µM) 89.3%; (second compound 0.949 µM, first compound 0.03 µM) 71.6%; (second compound 0.949 µM, first compound 0.0949 µM) 47.8%; (second compound 0.949 µM, first compound 0.3 µM) 42.5%. Also, the viability, T/C is, setting by setting: (second compound 3 µM, first compound 0.000949 µM) 93.9%; (second compound 3 µM, first compound 0.003 µM) 77.8%; (second compound 3 µM, first compound 0.00949 µM) 66.1%; (second compound 3 µM, first compound 0.03 µM) 56%; (second compound 3 µM, first compound 0.0949 µM) 50.7%; (second compound 3 µM, first compound 0.3 µM) 42.6%.
As for `NC(=O)C(=Cn1cnc(-c2cc(C(F)(F)F)cc(C(F)(F)F)c2)n1)c1cncnc1`, the viability, T/C is, setting by setting: (compound 0.000949 µM) 66.2% and 56.3% and 21.6%; (compound 0.003 µM) 90% and 89% and 18%; (compound 0.00949 µM) 81.3% and 73.5% and 18.6%; (compound 0.03 µM) 67.2% and 38.9% and 20.1%; (compound 0.0949 µM) 61.8% and 57.6% and 17.8%; (compound 0.3 µM) 53.9% and 40.3% and 22.3%.
As to `NC1CCC(NC2CC2c2ccccc2)CC1` (stereo unspecified), the viability, T/C (compound 0.000316 µM) was 78.8% and 74.6% and 64.2%; the viability, T/C (compound 0.001 µM) was 78.6% and 79.4% and 71.8%; the viability, T/C (compound 0.00316 µM) is 76.3% and 81% and 80.4%; the viability, T/C (compound 0.01 µM) is 74% and 88.9% and 68.4%; the viability, T/C (compound 0.0316 µM) was 83.4% and 76.8% and 64.2%; the viability, T/C (compound 0.1 µM) is 78.2% and 98.4% and 47.2%. Further, the concentration for half-maximal inhibition (IC50) (curve of compound) was > 100 nM and 82.7 nM.
With `CCN1C(C(=O)NC23CCC(C(=O)O)(CC2)CC3)C(c2cccc(Cl)c2F)C2(C(=O)Nc3cc(Cl)ccc32)C12CCCCC2` (stereo unspecified), the viability, T/C (compound 0.00949 µM) is 86.6% and 74.5%. Moreover, the half-inhibitory concentration (IC50) reads like this: (compound alone, run of 10/11/2022) more than 3000 nM; (curve of compound) 1810 nM and > 3000 nM.
In the case of `COc1c(OCCCN2CCOCC2)ccc2c3n(c(=NC(=O)c4cnc(N)nc4)nc12)CCN3` + CCN1C(C(=O)NC23CCC(C(=O)O)(CC2)CC3)C(c2cccc(Cl)c2F)C2(C(=O)Nc3cc(Cl)ccc32)C12CCCCC2, the half-maximal inhibitory concentration (IC50) came to 25.4 nM under setting [1]; 29.7 nM under setting [2]; 38.4 nM under setting [3]; 27.2 nM under setting [4]; 20.9 nM under setting [5]. Besides, the viability, T/C (second compound 0.03 µM, first compound 0.00316 µM) is 66.2%; the viability, T/C (second compound 0.03 µM, first compound 0.01 µM) was 58.8%; the viability, T/C (second compound 0.03 µM, first compound 0.0316 µM) was 47%; the viability, T/C (second compound 0.03 µM, first compound 0.1 µM) is 37.1%; the viability, T/C (second compound 0.03 µM, first compound 0.316 µM) is 25.9%; the viability, T/C (second compound 0.03 µM, first compound 1 µM) is 14.6%. The viability, T/C was 75.6% (second compound 0.0949 µM, first compound 0.00316 µM); 58.2% (second compound 0.0949 µM, first compound 0.01 µM); 51.5% (second compound 0.0949 µM, first compound 0.0316 µM); 36.5% (second compound 0.0949 µM, first compound 0.1 µM); 30.3% (second compound 0.0949 µM, first compound 0.316 µM); 17.4% (second compound 0.0949 µM, first compound 1 µM). Besides, the viability, T/C is 77.3% (second compound 0.3 µM, first compound 0.00316 µM); 64.1% (second compound 0.3 µM, first compound 0.01 µM); 55% (second compound 0.3 µM, first compound 0.0316 µM); 36.5% (second compound 0.3 µM, first compound 0.1 µM); 24.4% (second compound 0.3 µM, first compound 0.316 µM); 17.4% (second compound 0.3 µM, first compound 1 µM). The viability, T/C by setting is: (second compound 0.949 µM, first compound 0.00316 µM) 81.3%; (second compound 0.949 µM, first compound 0.01 µM) 60.4%; (second compound 0.949 µM, first compound 0.0316 µM) 52.2%; (second compound 0.949 µM, first compound 0.1 µM) 33.2%; (second compound 0.949 µM, first compound 0.316 µM) 21%; (second compound 0.949 µM, first compound 1 µM) 17.3%. For the same compound, the viability, T/C was 74% (second compound 3 µM, first compound 0.00316 µM); 62% (second compound 3 µM, first compound 0.01 µM); 43% (second compound 3 µM, first compound 0.0316 µM); 28% (second compound 3 µM, first compound 0.1 µM); 19.1% (second compound 3 µM, first compound 0.316 µM); 15.6% (second compound 3 µM, first compound 1 µM).
